{"source": "patent US6984510B2", "about": "“Vitamin B6-phosphate phosphatase” (DSM IP Assets B.V., priority 2001, dated 2006)", "key": {"VB6PP [1]": {"molecular_target": "T1, VB6PP (Sinorhizobium meliloti, UniProt A7BK78)", "T1 sequence (A7BK78 entry or part of it)": "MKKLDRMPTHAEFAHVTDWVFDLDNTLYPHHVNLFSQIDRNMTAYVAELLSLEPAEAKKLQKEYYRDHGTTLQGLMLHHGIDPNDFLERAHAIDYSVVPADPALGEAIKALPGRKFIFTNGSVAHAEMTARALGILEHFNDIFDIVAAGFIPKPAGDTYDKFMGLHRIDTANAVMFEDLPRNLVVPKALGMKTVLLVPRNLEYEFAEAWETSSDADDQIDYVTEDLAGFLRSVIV", "test": "substrate specificity of the enzyme (phosphate release, malachite green method)", "type": "biochemical", "settings": "for Relative activity (%): substrate 160 μM final concentration, PNP = 100", "description": "After incubation for 30 minutes, the reaction mixture was cooled down into an ice bath. Activity was determined in the following two ways. […] One unit of the enzyme activity was defined as-the amount of enzyme synthesizing 1 μmole of vitamin B6 for 30 minutes in the assay system described above."}, "VB6PP [2]": {"molecular_target": "T1, VB6PP", "test": "co-factor requirement of the enzyme to convert VB6P to vitamin B6 (standard enzyme assay)", "type": "biochemical", "design": "Relative activity (%): concentration or dose not given beside the values"}, "[3]": {"settings": "metal salt as co-factor, MnCl2 = 100"}}, "note": "Like-named read-outs stand apart in the source and are kept apart here."}
{"smiles": "O=P(O)(O)Oc1cccc2ccccc12", "note": "[1-naphthyl phosphate]", "values": [{"measurement": "Relative activity (%)", "setting": "VB6PP [1]", "result": 9, "unit": "%"}]}
{"smiles": "O=C(O)COP(=O)(O)O", "note": "[2-phosphoglycolic acid]", "values": [{"measurement": "Relative activity (%)", "setting": "VB6PP [1]", "result": 0, "unit": "%"}]}
{"smiles": "[Cl-].[Cl-].[Co+2]", "note": "[CoCl2]", "values": [{"measurement": "Relative activity (%)", "setting": "VB6PP [2]", "result": 65, "unit": "%"}, {"measurement": "co-factor for conversion of VB6P to vitamin B6", "setting": "VB6PP [2]", "result": "could serve as a co-factor"}]}
{"smiles": "O=C(O)C(O)COP(=O)(O)O", "note": "(stereo not drawn) [D(−)3-phosphoglyceric acid]", "values": [{"measurement": "Relative activity (%)", "setting": "VB6PP [1]", "result": 0, "unit": "%"}]}
{"smiles": "O=C[C@H](O)[C@@H](O)[C@H](O)[C@H](O)COP(=O)(O)O", "note": "[D-glucose 6-phosphate]", "values": [{"measurement": "Relative activity (%)", "setting": "VB6PP [1]", "result": 0, "unit": "%"}]}
{"smiles": "[Cl-].[Cl-].[Mg+2]", "note": "[MgCl2]", "values": [{"measurement": "co-factor for conversion of VB6P to vitamin B6", "setting": "VB6PP [2]; divalent metal ion", "result": "could serve as a co-factor"}, {"measurement": "Relative activity (%)", "setting": "VB6PP [2]; [3]", "result": 88, "unit": "%"}]}
{"smiles": "[Cl][Mn][Cl]", "note": "[MnCl2]", "values": [{"measurement": "co-factor for conversion of VB6P to vitamin B6", "setting": "VB6PP [2]; divalent metal ion", "result": "could serve as a co-factor"}, {"measurement": "Relative activity (%)", "setting": "VB6PP [2]; [3]", "result": 100, "unit": "%"}]}
{"smiles": "[Cl][Ni][Cl]", "note": "[NiCl2]", "values": [{"measurement": "co-factor for conversion of VB6P to vitamin B6", "setting": "VB6PP [2]; divalent metal ion", "result": "could serve as a co-factor"}, {"measurement": "Relative activity (%)", "setting": "VB6PP [2]; [3]", "result": 7, "unit": "%"}]}
{"smiles": "N[C@@H](COP(=O)(O)O)C(=O)O", "note": "[O-phospho-L-serine]", "values": [{"measurement": "Relative activity (%)", "setting": "VB6PP [1]", "result": 0, "unit": "%"}]}
{"smiles": "Cc1ncc(COP(=O)(O)O)c(C=O)c1O", "note": "[PLP, pyridoxal 5′-phosphate]", "values": [{"measurement": "Substrate specificity", "setting": "VB6PP [1]", "result": "active"}, {"measurement": "Relative activity (%)", "setting": "VB6PP [1]", "result": 40, "unit": "%"}]}
{"smiles": "Cc1ncc(COP(=O)(O)O)c(CN)c1O", "note": "[PMP, pyridoxamine 5′-phosphate]", "values": [{"measurement": "Substrate specificity", "setting": "VB6PP [1]", "result": "active"}, {"measurement": "Relative activity (%)", "setting": "VB6PP [1]", "result": 0.1, "unit": "%"}]}
{"smiles": "[Cl][Sn][Cl]", "note": "[SnCl2]", "values": [{"measurement": "co-factor for conversion of VB6P to vitamin B6", "setting": "VB6PP [2]; divalent metal ion", "result": "could serve as a co-factor"}, {"measurement": "Relative activity (%)", "setting": "VB6PP [2]; [3]", "result": 11, "unit": "%"}]}
{"smiles": "Nc1ncnc2c1ncn2[C@@H]1O[C@H](COP(=O)(O)OP(=O)(O)O)[C@@H](O)[C@H]1O", "note": "[adenosine diphosphate]", "values": [{"measurement": "Relative activity (%)", "setting": "VB6PP [1]", "result": 0, "unit": "%"}]}
{"smiles": "Nc1ncnc2c1ncn2[C@@H]1O[C@H](COP(=O)(O)O)[C@@H](O)[C@H]1O", "note": "[adenosine monophosphate]", "values": [{"measurement": "Relative activity (%)", "setting": "VB6PP [1]", "result": 6, "unit": "%"}]}
{"smiles": "Nc1ncnc2c1ncn2[C@@H]1O[C@H](COP(=O)(O)OP(=O)(O)OP(=O)(O)O)[C@@H](O)[C@H]1O", "note": "[adenosine triphosphate]", "values": [{"measurement": "Relative activity (%)", "setting": "VB6PP [1]", "result": 0, "unit": "%"}]}
{"smiles": "O=[N+]([O-])c1ccc(OP(=O)(O)O)cc1", "note": "[p-nitrophenyl phosphate]", "values": [{"measurement": "Relative activity (%)", "setting": "VB6PP [1]", "result": 29, "unit": "%"}]}
